Experimental data: ChEMBL document CHEMBL3797188, “Piperidine derivatives as nonprostanoid IP receptor agonists 2” (Bioorg Med Chem Lett, 2016)

Experiments:
[1] = Antiplatelet activity in human platelet rich plasma assessed as inhibition of ADP-induced platelet aggregation; format: functional, cell-free
[2] = molecular target: T1, Prostaglandin E2 receptor EP3 subtype (Homo sapiens, UniProt P43115); experiment: Binding affinity to human EP3 receptor
T1 sequence (P43115 whole entry): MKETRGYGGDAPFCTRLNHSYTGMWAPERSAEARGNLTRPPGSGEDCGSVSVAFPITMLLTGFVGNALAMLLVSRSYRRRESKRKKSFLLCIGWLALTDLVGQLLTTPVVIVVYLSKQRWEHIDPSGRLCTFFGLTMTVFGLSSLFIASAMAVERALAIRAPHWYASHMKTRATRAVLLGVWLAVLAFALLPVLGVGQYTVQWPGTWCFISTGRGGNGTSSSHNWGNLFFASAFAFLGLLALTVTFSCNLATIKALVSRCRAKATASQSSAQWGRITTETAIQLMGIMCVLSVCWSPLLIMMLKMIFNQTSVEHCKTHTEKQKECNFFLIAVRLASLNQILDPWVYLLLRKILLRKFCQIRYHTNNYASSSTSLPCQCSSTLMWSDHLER

[3] = molecular target: Prostaglandin E2 receptor EP4 subtype (Homo sapiens, UniProt P35408); experiment: Binding affinity to human EP4 receptor
Chain of Prostaglandin E2 receptor EP4 subtype (P35408 whole entry): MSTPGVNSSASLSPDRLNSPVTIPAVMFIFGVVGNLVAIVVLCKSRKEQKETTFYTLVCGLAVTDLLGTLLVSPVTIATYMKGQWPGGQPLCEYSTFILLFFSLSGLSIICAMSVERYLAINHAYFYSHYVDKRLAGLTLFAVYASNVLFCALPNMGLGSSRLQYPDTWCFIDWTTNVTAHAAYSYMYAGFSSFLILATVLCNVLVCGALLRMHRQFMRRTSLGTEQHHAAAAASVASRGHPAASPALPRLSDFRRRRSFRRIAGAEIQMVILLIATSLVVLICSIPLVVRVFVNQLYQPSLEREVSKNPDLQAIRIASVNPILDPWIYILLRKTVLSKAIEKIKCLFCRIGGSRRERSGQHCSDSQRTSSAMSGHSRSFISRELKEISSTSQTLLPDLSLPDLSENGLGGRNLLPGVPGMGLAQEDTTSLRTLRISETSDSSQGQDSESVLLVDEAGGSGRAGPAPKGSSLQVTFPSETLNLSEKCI

[4] = Cmax in fasted dog at 0.5 mg/kg, po; format: ADME, organism-based, Canis lupus familiaris; set-up: dose 0.5 mg/kg, route oral; conditions: in vivo
[5] = molecular target: Prostaglandin F2-alpha receptor (Homo sapiens, UniProt P43088); experiment: Binding affinity to human FP receptor
Chain of Prostaglandin F2-alpha receptor (P43088 whole entry): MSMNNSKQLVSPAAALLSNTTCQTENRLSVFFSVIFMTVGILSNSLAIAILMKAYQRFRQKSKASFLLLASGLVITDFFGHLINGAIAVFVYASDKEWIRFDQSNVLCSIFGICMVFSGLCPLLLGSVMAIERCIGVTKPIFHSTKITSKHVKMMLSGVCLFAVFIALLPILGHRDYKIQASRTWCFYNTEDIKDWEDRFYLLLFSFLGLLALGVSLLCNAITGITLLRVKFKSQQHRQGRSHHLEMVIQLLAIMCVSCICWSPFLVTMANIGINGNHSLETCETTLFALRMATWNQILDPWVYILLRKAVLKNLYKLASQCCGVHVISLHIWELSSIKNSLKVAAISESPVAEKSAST

Thromboxane A2 receptor = molecular target: T2, Thromboxane A2 receptor (Homo sapiens, UniProt P21731); experiment: Binding affinity to human TP receptor
T2 sequence (P21731 whole entry): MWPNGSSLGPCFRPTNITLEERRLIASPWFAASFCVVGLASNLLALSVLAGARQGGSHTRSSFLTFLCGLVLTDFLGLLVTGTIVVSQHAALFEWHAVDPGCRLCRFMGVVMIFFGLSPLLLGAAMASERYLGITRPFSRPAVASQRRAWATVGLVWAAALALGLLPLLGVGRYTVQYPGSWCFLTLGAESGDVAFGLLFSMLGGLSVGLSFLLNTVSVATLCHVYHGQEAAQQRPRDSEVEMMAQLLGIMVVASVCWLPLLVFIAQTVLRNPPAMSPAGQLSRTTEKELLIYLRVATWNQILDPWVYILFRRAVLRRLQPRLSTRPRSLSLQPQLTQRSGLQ

[6] = molecular target: Prostaglandin E2 receptor EP2 subtype (Homo sapiens, UniProt P43116); experiment: Binding affinity to human EP2 receptor
Chain of Prostaglandin E2 receptor EP2 subtype (P43116 whole entry): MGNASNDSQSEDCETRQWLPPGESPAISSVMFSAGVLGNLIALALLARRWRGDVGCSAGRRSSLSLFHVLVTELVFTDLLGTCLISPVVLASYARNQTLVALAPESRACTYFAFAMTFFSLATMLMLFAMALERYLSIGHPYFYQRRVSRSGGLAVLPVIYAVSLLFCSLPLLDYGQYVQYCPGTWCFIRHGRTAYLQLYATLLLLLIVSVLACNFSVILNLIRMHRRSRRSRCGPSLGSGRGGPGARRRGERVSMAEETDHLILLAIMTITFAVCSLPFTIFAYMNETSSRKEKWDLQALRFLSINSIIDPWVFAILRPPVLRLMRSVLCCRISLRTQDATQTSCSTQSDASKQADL

Prostacyclin receptor = Prostacyclin receptor (Homo sapiens, UniProt P43119); experiment: Binding affinity to human IP receptor
Chain of Prostacyclin receptor (P43119 whole entry): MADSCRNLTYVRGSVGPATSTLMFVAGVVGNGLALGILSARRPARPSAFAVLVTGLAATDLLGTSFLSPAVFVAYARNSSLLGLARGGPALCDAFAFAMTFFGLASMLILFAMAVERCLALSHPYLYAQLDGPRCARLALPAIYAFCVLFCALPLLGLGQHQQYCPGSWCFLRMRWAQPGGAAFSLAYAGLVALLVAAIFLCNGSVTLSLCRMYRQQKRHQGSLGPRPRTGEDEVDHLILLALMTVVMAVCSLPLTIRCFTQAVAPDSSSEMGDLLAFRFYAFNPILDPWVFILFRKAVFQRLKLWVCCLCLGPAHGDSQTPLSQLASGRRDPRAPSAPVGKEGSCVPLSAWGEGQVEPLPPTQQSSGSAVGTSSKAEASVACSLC

[7] = Oral bioavailability in fasted dog at 0.5 mg/kg; format: ADME, organism-based, Canis lupus familiaris; conditions: in vivo

IC50 [1] [nM] | Structure (SMILES) | further results
690 | Cc1ccc(N(CCN2CCC(OCC(=O)O)CC2)C(=O)c2ccc(Cl)cc2)cc1 | 
310 | Cc1cccc(C(=O)N(CCN2CCC(OCC(=O)O)CC2)c2ccc(Cl)cc2)c1 | 
1500 | O=C(O)COC1CCN(CCN(C(=O)c2ccc(Cl)cc2)c2ccc(Cl)cc2)CC1 | 
530 | COc1cc(OC)cc(C(=O)N(CCN2CCC(OCC(=O)O)CC2)c2ccc(C)cc2)c1 | 
> 10000 | Cc1ccc(N(CCN2CCC(OCC(=O)O)CC2)C(=O)c2ccc(-c3ccccc3)cc2)cc1 | 
> 10000 | O=C(O)COC1CCN(CCN(C(=O)c2ccc(C(F)(F)F)cc2)c2ccc(Cl)cc2)CC1 | 
> 10000 | O=C(O)COC1CCN(CCN(C(=O)c2cccc(C(F)(F)F)c2)c2ccc(Cl)cc2)CC1 | 
3100 | COc1ccc(C(=O)N(CCN2CCC(OCC(=O)O)CC2)c2ccc(Cl)cc2)cc1 | 
440 | O=C(O)COC1CCN(CCN(C(=O)c2ccccc2)c2ccc(Cl)cc2)CC1 | 
 | Cc1ccc(N(CCN2CCC(OCC(=O)O)CC2)C(=O)c2ccc3c(c2)OCO3)cc1.Cl.O | Ki [2]: > 50000 nM; Ki [3]: > 50000 nM; Cmax [4]: 130 ng/mL; Ki [5]: > 50000 nM; Ki (Thromboxane A2 receptor): > 50000 nM; Ki [6]: > 50000 nM; Ki (Prostacyclin receptor): 400 nM; bioavailability [7]: 76%
1200 | COc1ccc(C(=O)N(CCN2CCC(OCC(=O)O)CC2)c2ccc(C)cc2)cc1 | 
160 | Cc1ccc(N(CCN2CCC(OCC(=O)O)CC2)C(=O)c2cccc(F)c2)cc1 | 
> 3000 | COc1ccc(OC)c(C(=O)N(CCN2CCC(OCC(=O)O)CC2)c2ccc(C)cc2)c1 | 
340 | O=C(O)COC1CCN(CCN(C(=O)c2cccc(F)c2)c2ccc(Cl)cc2)CC1 | 
20000 | Cc1ccc(N(CCN2CCC(OCC(=O)O)CC2)C(=O)c2cccc(C(F)(F)F)c2)cc1 | 
2000 | O=C(O)COC1CCN(CCN(C(=O)c2ccc(F)cc2)c2ccc(Cl)cc2)CC1 | 
1600 | COc1cccc(C(=O)N(CCN2CCC(OCC(=O)O)CC2)c2ccc(C)cc2)c1OC | 
32 | COc1cccc(C(=O)N(CCN2CCC(OCC(=O)O)CC2)c2ccc(C)cc2)c1 | 
160 | Cc1ccc(N(CCN2CCC(OCC(=O)O)CC2)C(=O)c2cccc(C)c2)cc1 | 
970 | Cc1ccc(N(CCN2CCC(OCC(=O)O)CC2)C(=O)c2ccc(F)cc2)cc1 | 
350 | O=C(O)COC1CCN(CCN(C(=O)c2cccc(Cl)c2)c2ccc(Cl)cc2)CC1 | 
74 | COc1cccc(C(=O)N(CCN2CCC(OCC(=O)O)CC2)c2ccc(Cl)cc2)c1 | 
> 10000 | O=C(O)COC1CCN(CCN(C(=O)c2ccc(-c3ccccc3)cc2)c2ccc(Cl)cc2)CC1 | 
> 10000 | Cc1ccc(N(CCN2CCC(OCC(=O)O)CC2)C(=O)c2ccc(C(F)(F)F)cc2)cc1 | 
21 | Cc1ccc(N(CCN2CCC(OCC(=O)O)CC2)C(=O)c2ccc3c(c2)OCO3)cc1 | 
100 | Cc1ccc(N(CCN2CCC(OCC(=O)O)CC2)C(=O)c2cccc(Cl)c2)cc1 | 
> 3000 | COc1ccc(C(=O)N(CCN2CCC(OCC(=O)O)CC2)c2ccc(C)cc2)cc1OC | 
220 | Cc1ccc(N(CCN2CCC(OCC(=O)O)CC2)C(=O)c2ccccc2)cc1 | 
